These are literature values, as cited in US5277910A, “Process for the preparation of a pharmaceutical composition selectively lowering the blood-lipid level” (priority 1991, dated 1994).

One data set deals with monkeys. As to conditions: monkeys fed with alfalfa; in words.
The conditions of data set [1]: in words.

For `N=C(N)NOCCC(N)C(=O)O` (centres unmarked) [Canavanine, 2-amino-4-(guanidinooxy)-butyric acid], the induced syndrome entry in the data set with monkeys is recorded as “induces a syndrome resembling lupus erithemathosus”.

Take `O=c1oc2cc(O)ccc2c2oc3cc(O)ccc3c12` [coumestrol]: the uterotrophic activity entry in data set [1] was “high uterotrophic activity”.
